Consider seven compounds from ChEMBL document CHEMBL1201862, “PubChem BioAssay data set” (2004).

Some test systems named below: ACHN; CAKI-1; COLO 205; DLD-1; EKVX; HCT-15; HOP-92; LOX IMVI; MOLT-4; NCI-H226; SF-539; SK-MEL-5; SNB-19; SNB-75; UACC-62; BT-549; DU-145; Hs-578T; MCF7; PC-3.
What all share (experiment): growth of human tumour cells (NCI), 48 h

The structures appear in SMILES notation.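 These data come from cells grown in 96-well plates and exposed to compound for 48 hours at five concentrations. At the GI50, growth is halved.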 Active and inactive are the calls of the source. Rule as the data show it: active = GI50 up to about 1.1 µM and inactive = higher. A value given as a limit tells only on which side of the number the result lay.

In the case of `CCOC(=O)C1=C(O)C(=O)c2c(OC)ccc(OC)c2C1=O`, the GI50 was > 100 µM (inactive) in the assay on ACHN; > 100 µM (inactive) with CAKI-1; > 100 µM (inactive) with COLO 205; > 100 µM (inactive) in the assay with DLD-1; > 100 µM (inactive) with EKVX; > 100 µM in the assay on HCT-15. The GI50 in the assay on HOP-92, in the assay on LOX IMVI, with MOLT-4, in the assay on NCI-H226, in the assay on SF-539 and in the assay with SK-MEL-5 was > 100 µM (inactive) each time. Moreover, the values for the GI50 with SNB-19, in the assay on SNB-75 and with UACC-62 were > 100 µM (inactive), 82.6 µM (inactive) and > 100 µM (inactive), respectively.
As to `Cc1ccc(NC(=O)CC2C(=O)Nc3ccccc3S2(=O)=O)c(C)c1` (stereo unspecified), the GI50 with ACHN is 18 µM (inactive); in the assay on CAKI-1 it was 8.79 µM (inactive); with DLD-1 it was 14.6 µM (inactive); with EKVX it was 42.5 µM (inactive); in the assay on HCT-15 it was 8.32 µM; with HOP-92, 15 µM (inactive). Besides, the GI50 with LOX IMVI was 15 µM (inactive); in the assay on MOLT-4 it was 7.33 µM (inactive); in the assay on NCI-H226, 17 µM (inactive); with SF-539, 15.5 µM (inactive); in the assay on SK-MEL-5 it was 4.78 µM (inactive); with SNB-19, 14 µM (inactive). Moreover, the GI50 with SNB-75 was 15.2 µM (inactive); in the assay on UACC-62, 7.26 µM (inactive).
Take `C[C@@H]1C[C@@H](O)[C@]2(O)O[C@@H]3C[C@@]4(C=O)[C@@H](CC[C@@H]5[C@@H]4CC[C@]4(C)[C@@H](C6=CC(=O)OC6)CC[C@]54O)C[C@H]3O[C@@H]2O1` [CALACTIN]: the GI50 was 0.00283 µM (active) in the assay with ACHN; 0.0379 µM (active) with BT-549; 0.01 µM (active) in the assay with CAKI-1; 0.0221 µM (active) with COLO 205; 0.012 µM (active) in the assay with DLD-1; 0.0171 µM (active) in the assay with DU-145. Further, the GI50 is 0.0244 µM (active) in the assay on EKVX; 0.0162 µM with HCT-15; 0.0276 µM (active) with HOP-92; 0.0202 µM (active) in the assay on Hs-578T; 0.0148 µM (active) in the assay on LOX IMVI; 0.0335 µM (active) with MCF7. For the same compound, the GI50 was 0.00188 µM (active) in the assay with MOLT-4; 0.0243 µM (active) with NCI-H226; 0.0403 µM (active) with PC-3; 0.00581 µM (active) in the assay on SF-539; 0.0101 µM (active) with SK-MEL-5; 0.0219 µM (active) in the assay on SNB-19. The GI50 with SNB-75 was 0.0251 µM (active); with UACC-62 it was 0.016 µM (active).
On to `O=C1Cc2ccccc2CCc2ccccc21`, for which the GI50 in the assay on ACHN was > 100 µM (inactive); with CAKI-1, > 100 µM (inactive); with COLO 205, > 100 µM (inactive); in the assay with DLD-1, > 100 µM (inactive); in the assay on EKVX it was 79.6 µM (inactive); in the assay on HCT-15 it was > 100 µM. For the same compound, the GI50 in the assay on HOP-92 was 35.6 µM (inactive); with LOX IMVI, > 100 µM (inactive); in the assay with MOLT-4 it was > 100 µM (inactive); with NCI-H226, > 100 µM (inactive); in the assay on SF-539, > 100 µM (inactive); in the assay with SK-MEL-5, > 100 µM (inactive). Besides, the GI50 in the assay on SNB-19 was > 100 µM (inactive); with SNB-75 it was 81.8 µM (inactive); in the assay on UACC-62 it was > 100 µM (inactive).
For the compound `Oc1ccc(-c2c3ccccc3c(-c3ccc(O)cc3)c3ccccc23)cc1`, the GI50 in the assay with ACHN is 89.9 µM (inactive); with CAKI-1 it was > 100 µM (inactive); in the assay with COLO 205 it was > 100 µM (inactive); in the assay with DLD-1 it was > 100 µM (inactive); in the assay with EKVX, > 100 µM (inactive); with HCT-15 it was > 100 µM. In addition, the GI50 in the assay with HOP-92 was > 100 µM (inactive); in the assay on LOX IMVI it was 60.5 µM (inactive); in the assay on MOLT-4, > 100 µM (inactive); with NCI-H226, > 100 µM (inactive); in the assay with SF-539, > 100 µM (inactive); in the assay with SK-MEL-5, > 100 µM (inactive). Moreover, the GI50 was > 100 µM (inactive) with SNB-19, 39.8 µM (inactive) in the assay on SNB-75 and 41 µM (inactive) in the assay with UACC-62.
On to `CCOC(=O)CSc1nnc(C(Sc2nc(-c3ccccc3)c(-c3ccccc3)[nH]2)C(C)C)n1-c1ccccc1` (stereo unspecified), for which the GI50 in the assay on ACHN is 19.7 µM (inactive); in the assay on BT-549 it was 24.5 µM (inactive); in the assay on COLO 205 it was 17 µM (inactive); in the assay with DLD-1, > 10 µM (inactive); in the assay with DU-145 it was 39.6 µM (inactive); in the assay on EKVX, 21.2 µM (inactive). Also, the GI50 in the assay with HCT-15 is 18.1 µM; with HOP-92, > 10 µM (inactive); in the assay with LOX IMVI it was 13.7 µM (inactive); with MCF7 it was 34.7 µM (inactive); in the assay with MOLT-4, 17.1 µM (inactive); with NCI-H226 it was 17.1 µM (inactive). In addition, the GI50 with PC-3 was 28.6 µM (inactive); in the assay on SF-539, 13 µM (inactive); in the assay with SK-MEL-5 it was > 10 µM (inactive); with SNB-19 it was 21.9 µM (inactive); in the assay with SNB-75 it was > 10 µM (inactive); in the assay with UACC-62, > 10 µM (inactive).
As for `NNC(=O)CCC(=O)Nc1cc(Cl)c(Cl)cc1Cl`, the GI50 in the assay on ACHN is > 100 µM (inactive); in the assay with CAKI-1, > 100 µM (inactive); in the assay on COLO 205 it was > 100 µM (inactive); in the assay with DLD-1 it was > 100 µM (inactive); in the assay on HCT-15 it was > 100 µM; in the assay with HOP-92 it was > 100 µM (inactive). For the same compound, the GI50 is > 100 µM (inactive) in the assay on LOX IMVI; 90.6 µM (inactive) in the assay with MOLT-4; > 100 µM (inactive) in the assay with NCI-H226; > 100 µM (inactive) in the assay on SF-539; > 100 µM (inactive) in the assay with SK-MEL-5; > 100 µM (inactive) in the assay on SNB-19. The results for the GI50 in the assay with SNB-75 and with UACC-62 were 95.1 µM (inactive) and > 100 µM (inactive), respectively.
